Values quoted from earlier work, collected in patent publication US9555015B2, “Antimicrobial compositions and methods for their use” (Dermcare-Vet Pty Ltd, priority 2004, dated 2017).

Experiments:
[1] = especially in concentrations as high as 2%, particularly when the tympanic membrane has been ruptured
[2] = 0.02% chlorhexidine compositions, bladder instillation
[3] = 0.2% chlorhexidine, external ear, ruptured tympanic membranes

[H]/N=C(\N/C(=N/[H])NCCCCCCNC(=N)NC(=N)Nc1ccc(Cl)cc1)Nc1ccc(Cl)cc1 [chlorhexidine]
ototoxicity [1]: ototoxic
bladder adverse effect [2]: chemical cystitis resulting in haematuria
ototoxic effects [3]: no ototoxic effects
